tested on: TGF-β signaling; test: Assay for evaluating cellular inhibition of TGF-β signaling, 4T1 (SBE-luc2P) luciferase reporter; format: cell-based; settings: Mus musculus, 4T1, 4T1 (SBE-luc2P) transient pool, 0.2% FBS, 2 h pre-treatment, TGF-β1 2 ng/mL 24 h; read-out: IC50 4T1 Cell
Method: [Example 2] Assay for Evaluating Cellular Inhibition of TGF-β Signaling
4T1 (SBE-luc2P) transient pool that have SBE-luc2P (hygro) expression plasmid or HEK293 (SBE reporter) stable cells (BPS bioscience) were seeded at 6×10^3 cells/well or 2.5×10^4 cells/well in 96-well plate, respectively. 4T1 (SBE-luc2P) transient pool were pre-treated with novel compound synthesized in Example 1 above in 0.2% FBS at approximately 60% confluence at 37° C. in 5% CO2. Also, HEK293 (SBE reporter) stable cells were pre-treated with each test compounds of formula in 0.5% FBS at approximately 80% confluence at 37° C. in 5% CO2. After 2 hours, cells were treated with TGF-β1 (2 ng/mL) for 24 h at 37° C. in 5% CO2. Cell lysates were prepared using Luciferase Assay (Promega) according to the manufacturer's instruction, and luminescence was measured by a plate reader, Biotek Synergy H1 (Vermont, USA).

| SMILES | IC50 [nM] |
| --- | --- |
| Nc1nc(-c2ccccc2)c(Oc2ccnc(NCc3ccncc3)c2)s1 [A-26, 4-Phenyl-5-((2-((pyridin-4-ylmethyl)amino)pyridin-4-yl)oxy)thiazol-2-amine] | > 100 |
| Nc1nc(-c2ccccc2)c(Oc2ccnc(Nc3ccnc(Cl)c3)c2)s1 [A-27, 5-((2-((2-Chloropyridin-4-yl)amino)pyridin-4-yl)oxy)-4-phenylthiazol-2-amine] | > 100 |
| Nc1nc(-c2ccccc2)c(Oc2ccnc(NCc3cccnc3)c2)s1 [A-28, 4-Phenyl-5-((2-((pyridin-3-ylmethyl)amino)pyridin-4-yl)oxy)thiazol-2-amine] | > 100 |
| Nc1nc(-c2ccccc2)c(Oc2ccnc(Nc3ccnc(F)c3)c2)s1 [A-30, 5-((2-((2-Fluoropyridin-4-yl)amino)pyridin-4-yl)oxy)-4-phenylthiazol-2-amine] | > 100 |
| COc1ccc(Nc2cc(Oc3sc(N)nc3-c3ccccc3)ccn2)cn1 [A-31, 5-((2-((6-Methoxypyridin-3-yl)amino)pyridin-4-yl)oxy)-4-phenylthiazol-2-amine] | > 100 |
| NC(=O)c1cncc(Nc2cc(Oc3sc(N)nc3-c3ccccc3)ccn2)c1 [A-32, 5-((4-((2-Amino-4-phenylthiazol-5-yl)oxy)pyridin-2-yl)amino)nicotinamide] | > 100 |
| NC(=O)c1cccc(Nc2cc(Oc3sc(N)nc3-c3ccccc3)ccn2)n1 [A-33, 6-((4-((2-Amino-4-phenylthiazol-5-yl)oxy)pyridin-2-yl)amino)picolinamide] | < 100 |
| CCS(=O)(=O)c1cccc(Nc2cc(Oc3sc(N)nc3-c3ccccc3)ccn2)c1 [A-34, 5-((2-((3-(Ethylsulfonyl)phenyl)amino)pyridin-4-yl)oxy)-4-phenylthiazol-2-amine] | < 100 |
| Nc1nc(-c2ccccc2)c(Oc2ccnc(Nc3ccc(Cl)nc3)c2)s1 [A-35, 5-((2-((6-Chloropyridin-3-yl)amino)pyridin-4-yl)oxy)-4-phenylthiazol-2-amine] | > 100 |
| Nc1nc(-c2ccccc2)c(Oc2ccnc(Nc3cccc(NS(=O)(=O)C(F)(F)F)c3)c2)s1 [A-36, N-(3-((4-((2-Amino-4-phenylthiazol-5-yl)oxy)pyridin-2-yl)amino)phenyl)-1,1,1-trifluoromethanesulfonamide] | < 100 |
| Cn1cc(Nc2cc(Oc3sc(N)nc3-c3ccccc3)ccn2)cn1 [A-37, 5-((2-((1-Methyl-1H-pyrazol-4-yl)amino)pyridin-4-yl)oxy)-4-phenylthiazol-2-amine] | > 100 |
| Nc1nc(-c2ccccc2)c(Oc2ccnc(Nc3cn[nH]c3)c2)s1 [A-38, 5-((2-((1H-Pyrazol-4-yl)amino)pyridin-4-yl)oxy)-4-phenylthiazol-2-amine] | > 100 |
| CS(=O)(=O)n1cc(Nc2cc(Oc3sc(N)nc3-c3ccccc3)ccn2)cn1 [A-62, 5-((2-((1-(Methylsulfonyl)-1H-pyrazol-4-yl)amino)pyridin-4-yl)oxy)-4-phenylthiazol-2-amine] | > 100 |
| Cc1nc(-c2ccccc2)c(Oc2ccnc(Nc3cccc(C(=O)N(C)C)c3)c2)s1 [A-67, N,N-Dimethyl-3-((4-((2-methyl-4-phenylthiazol-5-yl)oxy)pyridin-2-yl)amino)benzamide] | < 100 |
| CNS(=O)(=O)c1cccc(Nc2cc(Oc3sc(C)nc3-c3ccccc3)ccn2)c1 [A-73, N-Methyl-3-((4-((2-methyl-4-phenylthiazol-5-yl)oxy)pyridin-2-yl)amino)benzenesulfonamide] | < 100 |
| Cc1nc(-c2ccccc2)c(Oc2ccnc(Nc3cccc(S(=O)(=O)N(C)C)c3)c2)s1 [A-74, N,N-Dimethyl-3-((4-((2-methyl-4-phenylthiazol-5-yl)oxy)pyridin-2-yl)amino)benzenesulfonamide] | < 100 |
| Cc1nc(-c2ccccc2)c(Oc2ccnc(Nc3cccc(NS(=O)(=O)C4CC4)c3)c2)s1 [A-75, N-(3-((4-((2-Methyl-4-phenylthiazol-5-yl)oxy)pyridin-2-yl)amino)phenyl)cyclopropanesulfonamide] | < 100 |
| Cc1nc(-c2ccccc2)c(Oc2ccnc(Nc3cccc(S(=O)(=O)NC4CC4)c3)c2)s1 [A-76, N-Cyclopropyl-3-((4-((2-methyl-4-phenylthiazol-5-yl)oxy)pyridin-2-yl)amino)benzenesulfonamide] | < 100 |
| CCS(=O)(=O)c1cccc(Nc2cc(Oc3sc(C)nc3-c3ccccc3)ccn2)c1 [A-77, N-(3-(Ethylsulfonyl)phenyl)-4-((2-methyl-4-phenylthiazol-5-yl)oxy)pyridin-2-amine] | < 100 |
| Cc1nc(-c2ccccc2)c(Oc2ccnc(Nc3cccc(CS(C)(=O)=O)c3)c2)s1 [A-79, 4-((2-Methyl-4-phenylthiazol-5-yl)oxy)-N-(3-((methylsulfonyl)methyl)phenyl)pyridin-2-amine] | < 100 |
| Cc1nc(-c2ccccc2)c(Oc2ccnc(NCc3ccncc3)c2)s1 [A-80, 4-((2-Methyl-4-phenylthiazol-5-yl)oxy)-N-(pyridin-4-ylmethyl)pyridin-2-amine] | > 100 |

| SMILES | IC50 [nM] |
| --- | --- |
| Cc1nc(-c2ccccc2)c(Oc2ccnc(NCc3cccnc3)c2)s1 [A-81, 4-((2-Methyl-4-phenylthiazol-5-yl)oxy)-N-(pyridin-3-ylmethyl)pyridin-2-amine] | > 100 |
| Cc1nc(-c2ccccc2)c(Oc2ccnc(Nc3cccnc3)c2)s1 [A-82, 4-((2-Methyl-4-phenylthiazol-5-yl)oxy)-N-(pyridin-3-yl)pyridin-2-amine] | > 100 |
| Cc1nc(-c2ccccc2)c(Oc2ccnc(Nc3ccc(F)nc3)c2)s1 [A-83, N-(6-Fluoropyridin-3-yl)-4-((2-methyl-4-phenylthiazol-5-yl)oxy)pyridin-2-amine] | > 100 |
| Cc1nc(-c2ccccc2)c(Oc2ccnc(Nc3ccc(Cl)nc3)c2)s1 [A-84, N-(6-Chloropyridin-3-yl)-4-((2-methyl-4-phenylthiazol-5-yl)oxy)pyridin-2-amine] | > 100 |
| Cc1nc(-c2ccccc2)c(Oc2ccnc(Nc3ccnc(F)c3)c2)s1 [A-87, N-(2-Fluoropyridin-4-yl)-4-((2-methyl-4-phenylthiazol-5-yl)oxy)pyridin-2-amine] | > 100 |
| COc1cc(Nc2cc(Oc3sc(C)nc3-c3ccccc3)ccn2)ccn1 [A-88, N-(2-Methoxypyridin-4-yl)-4-((2-methyl-4-phenylthiazol-5-yl)oxy)pyridin-2-amine] | < 100 |
| Cc1nc(-c2ccccc2)c(Oc2ccnc(Nc3ccnc(Cl)c3)c2)s1 [A-89, N-(2-Chloropyridin-4-yl)-4-((2-methyl-4-phenylthiazol-5-yl)oxy)pyridin-2-amine] | < 100 |
| Cc1nc(-c2ccccc2)c(Oc2ccnc(Nc3ccc(C(N)=O)cn3)c2)s1 [A-90, 6-((4-((2-Methyl-4-phenylthiazol-5-yl)oxy)pyridin-2-yl)amino)nicotinamide] | < 100 |
| Cc1nc(-c2ccccc2)c(Oc2ccnc(NCc3ccccc3)c2)s1 [A-94, N-Benzyl-4-((2-methyl-4-phenylthiazol-5-yl)oxy)pyridin-2-amine] | > 100 |
| Cc1nc(-c2ccccc2)c(Oc2ccnc(NCc3ccc(F)cc3)c2)s1 [A-95, N-(4-Fluorobenzyl)-4-((2-methyl-4-phenylthiazol-5-yl)oxy)pyridin-2-amine] | > 100 |
| Cc1nc(-c2ccccc2)c(Oc2ccnc(NCc3cccc(F)c3)c2)s1 [A-96, N-(3-Fluorobenzyl)-4-((2-methyl-4-phenylthiazol-5-yl)oxy)pyridin-2-amine] | > 100 |
| Cc1nc(-c2ccccc2)c(Oc2ccnc(Nc3cnn(S(C)(=O)=O)c3)c2)s1 [A-97, 4-((2-Methyl-4-phenylthiazol-5-yl)oxy)-N-(1-(methylsulfonyl)-1H-pyrazol-4-yl)pyridin-2-amine] | > 100 |
| Cc1nc(-c2ccccc2)c(Oc2ccnc(Nc3cnn(S(=O)(=O)C4CC4)c3)c2)s1 [A-98, N-(1-(Cyclopropylsulfonyl)-1H-pyrazol-4-yl)-4-((2-methyl-4-phenylthiazol-5-yl)oxy)pyridin-2-amine] | > 100 |
| Cc1nc(-c2ccccc2)c(Oc2ccnc(Nc3cnn(C)c3)c2)s1 [A-99, N-(1-Methyl-1H-pyrazol-4-yl)-4-((2-methyl-4-phenylthiazol-5-yl)oxy)pyridin-2-amine] | < 100 |
| Cc1nc(-c2ccccc2)c(Oc2ccnc(Nc3cn[nH]c3)c2)s1 [A-100, 4-((2-Methyl-4-phenylthiazol-5-yl)oxy)-N-(1H-pyrazol-4-yl)pyridin-2-amine] | < 100 |
| Cc1nc(-c2ccccc2)c(Oc2ccnc(Nc3cccc(C(N)=O)n3)c2)s1 [A-101, 6-((4-((2-Methyl-4-phenylthiazol-5-yl)oxy)pyridin-2-yl)amino)picolinamide] | < 100 |
| Cc1nc(-c2ccccc2)c(Oc2ccnc(Nc3ccnc(C(N)=O)c3)c2)s1 [A-102, 4-((4-((2-Methyl-4-phenylthiazol-5-yl)oxy)pyridin-2-yl)amino)picolinamide] | > 100 |
| COc1ccc(Nc2cc(Oc3sc(C)nc3-c3ccccc3)ccn2)cc1 [A-103, N-(4-Methoxyphenyl)-4-((2-methyl-4-phenylthiazol-5-yl)oxy)pyridin-2-amine] | > 100 |
| COc1cc(Nc2cc(Oc3sc(C)nc3-c3ccccc3)ccn2)ccc1N1CCN(C)CC1 [A-106, N-(3-Methoxy-4-(4-methylpiperazin-1-yl)phenyl)-4-((2-methyl-4-phenylthiazol-5-yl)oxy)pyridin-2-amine] | < 100 |
| COCCN1CCN(c2ccc(Nc3cc(Oc4sc(C)nc4-c4ccccc4)ccn3)cc2)CC1 [A-108, N-(4-(4-(2-Methoxyethyl)piperazin-1-yl)phenyl)-4-((2-methyl-4-phenylthiazol-5-yl)oxy)pyridin-2-amine] | < 100 |

Source: patent US20250206730A1 (AUTOTELIC BIO INC., priority 2022, published 2025)
